Reference: patent US7138361B2, “Herbicidal heterocycles” (E. I. du Pont de Nemours and Company, priority 2000, dated 2006)

How the values were obtained:
Format in all cases: in vivo
corn (Zea mays) [1] = test: Test B preemergence
In short: (§1)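 Visual injury scores, 0 = no effect to 100 = complete control, assigned against controls after 13 to 15 days in the greenhouse. Compounds formulated in non-phytotoxic solvent plus surfactant and applied to soil after planting (pre) or onto foliage of 1- to 4-leaf plants (post).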

rice (Oryza saliva) [2] = test: Test B preemergence
In short: as §1

[3] = system: lambsquarters (Chenopodium album); test: Test B preemergence
In short: as §1

[4] = system: cocklebur (Xanthium strumarium); test: Test B preemergence
In short: as §1

[5] = system: Surinam grass (Brachiaria decumbens); test: Test B preemergence
In short: as §1

[6] = system: velvetleaf (Abutilon theophrasti); test: Test B preemergence
In short: as §1

[7] = system: barnyardgrass (Echinochloa crus-galli); test: Test B preemergence
In short: as §1

[8] = system: crabgrass (Digitaria sanguinalis); test: Test B preemergence
In short: as §1

[9] = system: morning glory (Ipomoea hederacea); test: Test B preemergence
In short: as §1

[10] = system: pigweed (Amaranthus retroflexus); test: Test B preemergence
In short: as §1

[11] = system: giant foxtail (Setaria faberii); test: Test B preemergence
In short: as §1

[12] = system: smallflower flatsedge (Cyperus difformis); test: Test B flooded paddy test; conditions: Rate 1000 g/ha, scale of 0 to 100 where 0 is no effect and 100 is complete control, visually evaluated after 13 to 15 days
Protocol: (§2) At the same time, plants selected from these crop and weed species and also blackgrass (Alopecurus myosuroides), wheat (Triticum aestivum) and wild oat (Avena fatua) were treated with postemergence applications of test chemicals formulated in the same manner. Plants ranged in height from 2 to 18 cm (1- to 4-leaf stage) for postemergence treatments. Plant species in the flooded paddy test consisted of rice (Oryza saliva), smallflower flatsedge (Cyperus difformis), duck salad (Heteranthera limosa) and barnyardgrass (Echinochloa crus-galli) grown to the 2-leaf stage for testing. Treated plants and controls were maintained in a greenhouse for 13 to 15 days, after which time all species were compared to controls and visually evaluated. Plant response ratings, summarized in Table B, are based on a scale of 0 to 100 where 0 is no effect and 100 is complete control. A dash (-) response means no test result.

rice (Oryza saliva) [13] = test: Test B flooded paddy test; conditions: Rate 1000 g/ha, scale of 0 to 100 where 0 is no effect and 100 is complete control, visually evaluated after 13 to 15 days
Protocol: as §2

[14] = system: duck salad (Heteranthera limosa); test: Test B flooded paddy test; conditions: Rate 1000 g/ha, scale of 0 to 100 where 0 is no effect and 100 is complete control, visually evaluated after 13 to 15 days
Protocol: as §2

[15] = system: barnyardgrass (Echinochloa crus-galli); test: Test B flooded paddy test; conditions: Rate 1000 g/ha, scale of 0 to 100 where 0 is no effect and 100 is complete control, visually evaluated after 13 to 15 days
Protocol: as §2

corn (Zea mays) [16] = test: Test B postemergence; conditions: 13 to 15 days
In short: as §1

wild oat (Avena fatua) = test: Test B postemergence; conditions: 13 to 15 days
In short: as §1

[17] = system: lambsquarters (Chenopodium album); test: Test B postemergence; conditions: 13 to 15 days
In short: as §1

[18] = system: cocklebur (Xanthium strumarium); test: Test B postemergence; conditions: 13 to 15 days
In short: as §1

[19] = system: Surinam grass (Brachiaria decumbens); test: Test B postemergence; conditions: 13 to 15 days
In short: as §1

[20] = system: velvetleaf (Abutilon theophrasti); test: Test B postemergence; conditions: 13 to 15 days
In short: as §1

[21] = system: barnyardgrass (Echinochloa crus-galli); test: Test B postemergence; conditions: 13 to 15 days
In short: as §1

[22] = system: crabgrass (Digitaria sanguinalis); test: Test B postemergence; conditions: 13 to 15 days
In short: as §1

[23] = system: morning glory (Ipomoea hederacea); test: Test B postemergence; conditions: 13 to 15 days
In short: as §1

[24] = system: pigweed (Amaranthus retroflexus); test: Test B postemergence; conditions: 13 to 15 days
In short: as §1

[25] = system: blackgrass (Alopecurus myosuroides); test: Test B postemergence; conditions: 13 to 15 days
In short: as §1

[26] = system: giant foxtail (Setaria faberii); test: Test B postemergence; conditions: 13 to 15 days
In short: as §1

[27] = system: wheat (Triticum aestivum); test: Test B postemergence; conditions: 13 to 15 days
In short: as §1

[28] = Preemergence, Rate 500 g/ha, scale 0 to 100, 0 no effect, 100 complete control
[29] = preemergence, Rate 125 g/ha, scale 0 to 100, 0 no effect, 100 complete control
[30] = Rate 125 g/ha, scale 0 (no effect) to 100 (complete control)
[31] = Rate 500 g/ha, scale 0 to 100, 0 is no effect, 100 is complete control
[32] = preemergence, Rate 125 g/ha, scale of 0 to 100 where 0 is no effect and 100 is complete control, 13 to 15 days

SMILES: Cc1ccc(N2CCC(n3ccc(C(C)(C)C)n3)C2=O)cc1Br (stereo not drawn) [Compound 35]
- Plant response rating, Corn (corn (Zea mays) [1]; [28]): 0
- Plant response rating, Corn (corn (Zea mays) [1]; [29]): 0
- Plant response rating, Rice (rice (Oryza saliva) [2]; [28]): 0
- Plant response rating, Lambsquarters [3, 28]: 100
- Plant response rating, Lambsquarters [3, 29]: 0
- Plant response rating, Cocklebur [4, 28]: 0
- Plant response rating, Cocklebur [4, 29]: 0
- Plant response rating, Surinam grass [5, 28]: 0
- Plant response rating, Surinam grass [5, 29]: 0
- Plant response rating, Velvetleaf [6, 28]: 0
- Plant response rating, Barnyardgrass [7, 28]: 60
- Plant response rating, Barnyardgrass [7, 29]: 0
- Plant response rating, Crabgrass [8, 28]: 100
- Plant response rating, Crabgrass [8, 29]: 0
- Plant response rating, Morningglory [9, 28]: 0
- Plant response rating, Pigweed [10, 28]: 100
- Plant response rating, Foxtail, Giant [11, 28]: 0
- Plant response rating, Foxtail, Giant [11, 29]: 0
- Plant response rating, Flatsedge [12]: 100
- Plant response rating, Rice (rice (Oryza saliva) [13]): 0
- Plant response rating, Ducksalad [14]: 0
- Plant response rating, Barnyardgrass [15]: 60
- Plant response rating, Corn (corn (Zea mays) [16]; [30]): 0
- Plant response rating, Corn (corn (Zea mays) [16]; [31]): 0
- Plant response rating, Wild Oat (wild oat (Avena fatua); [30]): 0
- Plant response rating, Wild Oat (wild oat (Avena fatua); [31]): 0
- Plant response rating, Lambsquarters [17, 30]: 0
- Plant response rating, Lambsquarters [17, 31]: 80
- Plant response rating, Cocklebur [18, 30]: 40
- Plant response rating, Cocklebur [18, 31]: 40
- Plant response rating, Surinam grass [19, 30]: 0
- Plant response rating, Surinam grass [19, 31]: 0
- Plant response rating, Velvetleaf [20, 30]: 0
- Plant response rating, Velvetleaf [20, 31]: 0
- Plant response rating, Barnyardgrass [21, 30]: 0
- Plant response rating, Barnyardgrass [21, 31]: 40
- Plant response rating, Crabgrass [22, 30]: 0
- Plant response rating, Crabgrass [22, 31]: 0
- Plant response rating, Morningglory [23, 30]: 0
- Plant response rating, Morningglory [23, 31]: 20
- Plant response rating, Pigweed [24, 30]: 90
- Plant response rating, Pigweed [24, 31]: 90
- Plant response rating, Blackgrass [25, 30]: 0
- Plant response rating, Blackgrass [25, 31]: 0
- Plant response rating, Foxtail, Giant [26, 30]: 0
- Plant response rating, Foxtail, Giant [26, 31]: 0
- Plant response rating, Wheat [27, 30]: 0
- Plant response rating, Wheat [27, 31]: 0

SMILES: Cc1ccc(N2CCC(n3ccc(C(C)(C)C)n3)C2=O)cc1Cl (stereo not drawn) [Compound 41]
- Plant response rating, Corn (corn (Zea mays) [1]; [28]): 0
- Plant response rating, Corn (corn (Zea mays) [1]; [29]): 0
- Plant response rating, Rice (rice (Oryza saliva) [2]; [28]): 0
- Plant response rating, Lambsquarters [3, 28]: 100
- Plant response rating, Lambsquarters [3, 29]: 100
- Plant response rating, Cocklebur [4, 28]: 0
- Plant response rating, Cocklebur [4, 29]: 0
- Plant response rating, Surinam grass [5, 28]: 0
- Plant response rating, Surinam grass [5, 29]: 0
- Plant response rating, Velvetleaf [6, 28]: 0
- Plant response rating, Barnyardgrass [7, 28]: 100
- Plant response rating, Barnyardgrass [7, 29]: 40
- Plant response rating, Crabgrass [8, 28]: 0
- Plant response rating, Crabgrass [8, 29]: 0
- Plant response rating, Morningglory [9, 28]: 0
- Plant response rating, Pigweed [10, 28]: 100
- Plant response rating, Foxtail, Giant [11, 28]: 60
- Plant response rating, Foxtail, Giant [11, 29]: 0
- Plant response rating, Flatsedge [12]: 100
- Plant response rating, Rice (rice (Oryza saliva) [13]): 40
- Plant response rating, Ducksalad [14]: 70
- Plant response rating, Barnyardgrass [15]: 70
- Plant response rating, Corn (corn (Zea mays) [16]; [31]): 0
- Plant response rating, Wild Oat (wild oat (Avena fatua); [30]): 0
- Plant response rating, Wild Oat (wild oat (Avena fatua); [31]): 0
- Plant response rating, Lambsquarters [17, 30]: 0
- Plant response rating, Lambsquarters [17, 31]: 60
- Plant response rating, Cocklebur [18, 30]: 0
- Plant response rating, Cocklebur [18, 31]: 0
- Plant response rating, Surinam grass [19, 30]: 0
- Plant response rating, Surinam grass [19, 31]: 0
- Plant response rating, Velvetleaf [20, 30]: 0
- Plant response rating, Velvetleaf [20, 31]: 0
- Plant response rating, Barnyardgrass [21, 30]: 0
- Plant response rating, Barnyardgrass [21, 31]: 70
- Plant response rating, Crabgrass [22, 30]: 0
- Plant response rating, Crabgrass [22, 31]: 40
- Plant response rating, Morningglory [23, 30]: 0
- Plant response rating, Morningglory [23, 31]: 20
- Plant response rating, Pigweed [24, 30]: 0
- Plant response rating, Pigweed [24, 31]: 80
- Plant response rating, Blackgrass [25, 30]: 0
- Plant response rating, Blackgrass [25, 31]: 0
- Plant response rating, Foxtail, Giant [26, 30]: 0
- Plant response rating, Foxtail, Giant [26, 31]: 0
- Plant response rating, Wheat [27, 30]: 0
- Plant response rating, Wheat [27, 31]: 0

SMILES: Cc1ccc(N2CCC(n3ccc(C(C)(C)C)n3)C2=O)cc1C(F)(F)F (stereo not drawn) [Compound 47]
- Plant response rating, Corn (corn (Zea mays) [1]; [28]): 0
- Plant response rating, Corn (corn (Zea mays) [1]; [32]): 0
- Plant response rating, Rice (rice (Oryza saliva) [2]; [28]): 20
- Plant response rating, Rice (rice (Oryza saliva) [2]; [32]): 0
- Plant response rating, Lambsquarters [3, 28]: 100
- Plant response rating, Lambsquarters [3, 32]: 0
- Plant response rating, Cocklebur [4, 28]: 0
- Plant response rating, Cocklebur [4, 32]: 0
- Plant response rating, Surinam grass [5, 28]: 0
- Plant response rating, Surinam grass [5, 32]: 0
- Plant response rating, Velvetleaf [6, 28]: 0
- Plant response rating, Velvetleaf [6, 32]: 0
- Plant response rating, Barnyardgrass [7, 28]: 0
- Plant response rating, Barnyardgrass [7, 32]: 0
- Plant response rating, Crabgrass [8, 28]: 0
- Plant response rating, Crabgrass [8, 32]: 0
- Plant response rating, Morningglory [9, 28]: 0
- Plant response rating, Morningglory [9, 32]: 0
- Plant response rating, Pigweed [10, 28]: 100
- Plant response rating, Pigweed [10, 32]: 100
- Plant response rating, Foxtail, Giant [11, 28]: 0
- Plant response rating, Foxtail, Giant [11, 32]: 0
- Plant response rating, Flatsedge [12]: 100
- Plant response rating, Rice (rice (Oryza saliva) [13]): 70
- Plant response rating, Ducksalad [14]: 20
- Plant response rating, Barnyardgrass [15]: 70
- Plant response rating, Corn (corn (Zea mays) [16]; [30]): 0
- Plant response rating, Corn (corn (Zea mays) [16]; [31]): 0
- Plant response rating, Wild Oat (wild oat (Avena fatua); [30]): 0
- Plant response rating, Wild Oat (wild oat (Avena fatua); [31]): 0
- Plant response rating, Lambsquarters [17, 30]: 70
- Plant response rating, Lambsquarters [17, 31]: 90
- Plant response rating, Cocklebur [18, 30]: 0
- Plant response rating, Cocklebur [18, 31]: 0
- Plant response rating, Surinam grass [19, 30]: 0
- Plant response rating, Surinam grass [19, 31]: 0
- Plant response rating, Velvetleaf [20, 30]: 0
- Plant response rating, Velvetleaf [20, 31]: 0
- Plant response rating, Barnyardgrass [21, 30]: 0
- Plant response rating, Barnyardgrass [21, 31]: 0
- Plant response rating, Crabgrass [22, 30]: 0
- Plant response rating, Crabgrass [22, 31]: 0
- Plant response rating, Morningglory [23, 30]: 0
- Plant response rating, Morningglory [23, 31]: 0
- Plant response rating, Pigweed [24, 30]: 50
- Plant response rating, Pigweed [24, 31]: 50
- Plant response rating, Blackgrass [25, 30]: 0
- Plant response rating, Blackgrass [25, 31]: 0
- Plant response rating, Foxtail, Giant [26, 30]: 0
- Plant response rating, Foxtail, Giant [26, 31]: 0
- Plant response rating, Wheat [27, 30]: 0
- Plant response rating, Wheat [27, 31]: 0
